This data set in a line: Reference tests: oxaliplatin added into water without polymer or with non-associative polymer. It counts as physicochemical. Particulars: oxaliplatin 10.5 g/L in water, pH 7, without polymer. The text has this: This test is a reference which consists of adding the oxaliplatin into water, without the associative water-soluble polymer.
This test is a reference which consists of adding the oxaliplatin into water, […].
Next, 1.9 g of a water-soluble polymer with 30% solids content, said polymer being made up 36.9% by weight of methacrylic acid and 63.1% by weight of ethyl acrylate.

Take `O=C1[O][Pt]2([NH][C@@H]3CCCC[C@H]3[NH]2)[O]C1=O` [oxaliplatin]: the “Appearance of the result” value is on record as “powder suspended in the water”.

Values taken from patent US20100278925A1, “FORMULATIONS OF ORGANO-PLATINIC COMPOUNDS IN THE PRESENCE OF ASSOCIATIVE POLYMERS, PRODUCTS THUS OBTAINED AND USES THEREOF” (Coatex S.A. S., priority 2007, published 2010).
